Experimental data as given in patent publication US9802918B2, “Pyridineamine compounds useful as Pim kinase inhibitors” (Incyte Corporation, priority 2015, dated 2017).

Legend:
Assay type in all cases: biochemical
[1] = molecular target: Pim-1 (Homo sapiens (Human), UniProt P11309); test: Pim-1 kinase assay; settings: 1 mM ATP; read-out: Pim1 IC50
Description: Supplementation of the STOP buffer with beads and stopping the reactions were done under reduced light. Prior to the stopping reactions STOP buffer with beads was preincubated for 1 h in the dark at room temperature. After stopping the reactions, plates were incubated for 1 h in the dark at room temperature before reading on a PHERAstar FS plate reader (BMG Labtech) under reduced light.

[2] = molecular target: Pim-2 (Homo sapiens (Human), UniProt Q9P1W9); test: Pim-2 kinase assay; settings: 1 mM ATP; read-out: Pim2 IC50
Description: Pim-2 kinase assay—20 μL reactions were run in white 384 well polystyrene plates dotted with 0.8 μL compound/DMSO in the assay buffer (50 mM Tris, pH 7.5, 0.01% Tween-20, 5 mM mgCl2, 0.01% BSA, 5 mM DTT), containing […] Fluorescein-labeled CREBtide peptide substrate (Invitrogen PV3508), 1 mM ATP, and 1 nM enzyme (Invitrogen PV3649) for 2 h at 25° C. Reactions were stopped by addition of 10 μL TR-FRET Dilution Buffer (Invitrogen PV3574) with 30 mM EDTA and 1.5 nM LanthaScreen Tb-CREB pSer133 antibody (Invitrogen PV3566). After 30 min. incubation at room temperature, plates were read on a PHERAstar FS plate reader (BMG Labtech).

[3] = molecular target: Pim-3 (Homo sapiens (Human), UniProt Q86V86); test: Pim-3 kinase assay; settings: 1 mM ATP; read-out: Pim3 IC50
Description: Pim-1 and Pim-3 kinase assays-20 μL reactions were run in white 384 well polystyrene plates dotted with 0.8 μL compound/DMSO in the assay buffer (50 mM Tris, pH 7.5, 0.01% Tween-20, 5 mM mgCl2, 0.01% BSA, 5 mM DTT), containing […] Biotin-labeled BAD peptide substrate (AnaSpec 62269), 1 mM ATP, and 2.5 pM (Pim-1, Invitrogen PV3503) or 1.25 pM (Pim-3, Millipore 14-738) enzyme for 1 h at 25° C. Reactions were stopped by addition of 10 μL STOP Buffer (150 mM Tris, pH=7.5, 150 mM NaCl, 75 mM EDTA, 0.01% Tween-20, 0.3% BSA,) supplemented with Phospho-Bad (Ser112) Antibody (Cell Signaling 9291) diluted 666-fold, and Streptavidin donor beads (PerkinElmer 6760002) along with Protein-A acceptor beads (PerkinElmer 6760137) at 15 μg/mL each. Supplementation of the STOP buffer with beads and stopping the reactions were done under reduced light. Prior to the stopping reactions STOP buffer with beads was preincubated for 1 h in the dark at room temperature. After stopping the reactions, plates were incubated for 1 h in the dark at room temperature before reading on a PHERAstar FS plate reader (BMG Labtech) under reduced light.

Pim-1, sequence (P11309 whole entry): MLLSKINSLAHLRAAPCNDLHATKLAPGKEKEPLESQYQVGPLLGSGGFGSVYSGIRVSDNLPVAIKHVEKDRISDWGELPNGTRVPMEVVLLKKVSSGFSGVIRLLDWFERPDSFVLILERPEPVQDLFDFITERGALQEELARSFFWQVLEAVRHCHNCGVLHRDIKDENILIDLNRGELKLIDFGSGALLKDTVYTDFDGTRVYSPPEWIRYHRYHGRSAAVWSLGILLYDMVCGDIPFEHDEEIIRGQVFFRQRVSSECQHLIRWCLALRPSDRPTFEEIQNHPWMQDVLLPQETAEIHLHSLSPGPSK
Pim-2, sequence (Q9P1W9 whole entry): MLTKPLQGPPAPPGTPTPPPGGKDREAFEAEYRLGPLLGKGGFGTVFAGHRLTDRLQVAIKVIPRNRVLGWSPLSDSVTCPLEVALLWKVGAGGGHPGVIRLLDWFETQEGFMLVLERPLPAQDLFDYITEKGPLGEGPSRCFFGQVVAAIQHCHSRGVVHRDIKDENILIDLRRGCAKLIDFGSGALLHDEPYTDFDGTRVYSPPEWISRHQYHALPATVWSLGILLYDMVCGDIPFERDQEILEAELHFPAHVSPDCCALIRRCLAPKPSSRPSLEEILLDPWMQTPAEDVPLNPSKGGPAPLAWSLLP

C[C@@H]1C[C@H](N)CN(c2ccncc2NCc2ccc(F)c(-c3c(F)cc(C4(O)CCOC4)cc3F)n2)C1 (stereo partly drawn) [Example 4, 3-(4-{6-[({4-[(3S,5R)-3-Amino-5-methylpiperidin-1-yl]pyridin-3-yl}amino)methyl]-3-fluoropyridin-2-yl}-3,5-difluorophenyl)tetrahydrofuran-3-ol]
IC50 [1]: < 10 nM | IC50 [2]: ≤ 100 nM | IC50 [3]: ≤ 10 nM

C[C@@H]1C[C@H](N)CN(c2ccncc2NCc2ccc(F)c(-c3c(F)cccc3F)n2)C1 [Example 19, 4-[(3S,5R)-3-Amino-5-methylpiperidin-1-yl]-N-{[6-(2,6-difluorophenyl)-5-fluoropyridin-2-yl]methyl}pyridin-3-amine]
IC50 [1]: < 10 nM | IC50 [2]: ≤ 100 nM | IC50 [3]: ≤ 10 nM

Nc1cc(F)c(-c2c(F)cccc2F)nc1CNc1cnccc1N1C[C@@H](N)C[C@@H](C(F)(F)F)C1 [Example 109, 2-[({4-[(3S,5R)-3-Amino-5-(trifluoromethyl)piperidin-1-yl]pyridin-3-yl}amino)methyl]-6-(2,6-difluorophenyl)-5-fluoropyridin-3-amine]
IC50 [1]: < 10 nM | IC50 [2]: ≤ 100 nM | IC50 [3]: ≤ 10 nM

C[C@@H]1C[C@H](N)CN(c2ccncc2NCc2ccc(F)c(-c3c(F)cc(C(C)(C)O)cc3F)n2)C1 [Example 105, 2-(4-{6-[({4-[(3S,5R)-3-Amino-5-methylpiperidin-1-yl]pyridin-3-yl}amino)methyl]-3-fluoropyridin-2-yl}-3,5-difluorophenyl)propan-2-ol]
IC50 [1]: < 10 nM | IC50 [2]: ≤ 100 nM | IC50 [3]: ≤ 10 nM

C[C@H]1CN(c2ccncc2NCc2ccc(F)c(C3=CCCCC3)n2)C[C@@H](N)[C@@H]1O [Example 57]
IC50 [1]: < 10 nM | IC50 [2]: 100 to 1000 nM | IC50 [3]: ≤ 10 nM

C[C@@H]1C[C@H](N)CN(c2ccncc2NCc2ccc(F)c(-c3c(F)cc(OC4CCOCC4)cc3F)n2)C1 [Example 78, 4-[(3S,5R)-3-Amino-5-methylpiperidin-1-yl]-N-({6-[2,6-difluoro-4-(tetrahydro-2H-pyran-4-yloxy)phenyl]-5-fluoropyridin-2-yl}methyl)pyridin-3-amine]
IC50 [1]: < 10 nM | IC50 [2]: ≤ 100 nM | IC50 [3]: ≤ 10 nM

N[C@H]1C[C@@H](C(F)(F)F)CN(c2ccncc2NCc2ccc(F)c(-c3c(F)cc(N4CCOCC4)cc3F)n2)C1 (stereo in doubt) [Example 34, 4-((3S, SR)-3-Amino-5-(trifluoromethyl)piperidin-1-yl)-N-((6-(2,6-difluoro-4-morpholinophenyl)-5-fluoropyridin-2-yl)methyl)pyridin-3-amine]
IC50 [1]: < 10 nM | IC50 [2]: ≤ 100 nM | IC50 [3]: ≤ 10 nM

C[C@H]1CN(c2ccncc2NCc2ccc(F)c(-c3c(F)cccc3C#N)n2)C[C@@H](N)[C@@H]1O [Example 17, 2-(6-((4-((3R,4R,5S)-3-Amino-4-hydroxy-5-methylpiperidin-1-yl)pyridin-3-ylamino)methyl)-3-fluoropyridin-2-yl)-3-fluorobenzonitrile]
IC50 [1]: < 10 nM | IC50 [2]: 100 to 1000 nM | IC50 [3]: ≤ 10 nM

C[C@@H]1C[C@H](N)CN(c2ccncc2NCc2ccc(F)c(-c3c(F)cc(CC(C)(C)O)cc3F)n2)C1 [Example 13, 1-(4-{6-[({4-[(3S,5R)-3-Amino-5-methylpiperidin-1-yl]pyridin-3-yl}amino)methyl]-3-fluoropyridin-2-yl}-3,5-difluorophenyl)-2-methylpropan-2-ol]
IC50 [1]: < 10 nM | IC50 [2]: ≤ 100 nM | IC50 [3]: ≤ 10 nM

C[C@H]1CN(c2ccncc2NCc2ccc(F)c(-c3c(F)cc(CN4CC[C@H](C#N)C4)cc3F)n2)C[C@@H](N)[C@@H]1O [Example 45, (S)-1-(4-(6-((4-((3R,4R,5S)-3-Amino-4-hydroxy-5-methylpiperidin-1-yl)pyridin-3-ylamino)methyl)-3-fluoropyridin-2-yl)-3,5-difluorobenzyl)pyrrolidine-3-carbonitrile]
IC50 [1]: < 10 nM | IC50 [2]: ≤ 100 nM | IC50 [3]: ≤ 10 nM

C[C@@H]1C[C@H](N)CN(c2ccncc2NCc2ccc(F)c(-c3c(F)cc(C4(F)CCOCC4)cc3F)n2)C1 [Example 62, 4-[(3S,5R)-3-Amino-5-methylpiperidin-1-yl]-N-({6-[2,6-difluoro-4-(4-fluorotetrahydro-2H-pyran-4-yl)phenyl]-5-fluoropyridin-2-yl}methyl)pyridin-3-amine]
IC50 [1]: < 10 nM | IC50 [2]: ≤ 100 nM | IC50 [3]: ≤ 10 nM

C[C@@H]1C[C@H](N)CN(c2ccncc2NCc2ccc(F)c(-c3c(F)cc(O[C@H]4CCOC4)cc3F)n2)C1 [Example 76, 4-[(3S,5R)-3-Amino-5-methylpiperidin-1-yl]-N-[(6-{2,6-difluoro-4-[(3S)-tetrahydrofuran-3-yloxy]phenyl}-5-fluoropyridin-2-yl)methyl]pyridin-3-amine]
IC50 [1]: < 10 nM | IC50 [2]: ≤ 100 nM | IC50 [3]: ≤ 10 nM

C[C@@H]1C[C@H](N)CN(c2ccncc2NCc2ccc(F)c(-c3c(F)cc(CN4CCOCC4)cc3F)n2)C1 [Example 48, 4-[(3S,5R)-3-Amino-5-methylpiperidin-1-yl]-N-({6-[2,6-difluoro-4-(morpholin-4-ylmethyl)phenyl]-5-fluoropyridin-2-yl}methyl)pyridin-3-amine]
IC50 [1]: < 10 nM | IC50 [2]: ≤ 100 nM | IC50 [3]: ≤ 10 nM

CNCc1cc(F)c(-c2nc(CNc3cnccc3N3C[C@H](C)C[C@H](N)C3)ccc2F)c(F)c1 [Example 49, 4-((3S,5R)-3-Amino-5-methylpiperidin-1-yl)-N-((6-(2,6-difluoro-4-((methylamino)methyl)phenyl)-5-fluoropyridin-2-yl)methyl)pyridin-3-amine]
IC50 [1]: < 10 nM | IC50 [2]: 100 to 1000 nM | IC50 [3]: ≤ 10 nM

C[C@H]1CN(c2ccncc2NCc2ccc(F)c(-c3c(F)cc(C4(O)CCOCC4)cc3F)n2)C[C@@H](N)[C@@H]1O [Example 3, (3R,4R,5S)-3-Amino-1-(3-(((6-(2,6-difluoro-4-(4-hydroxytetrahydro-2H-pyran-4-yl)phenyl)-5-fluoropyridin-2-yl)methyl)amino)pyridin-4-yl)-5-methylpiperidin-4-ol]
IC50 [1]: < 10 nM | IC50 [2]: ≤ 100 nM | IC50 [3]: ≤ 10 nM

COc1cccc(F)c1-c1nc(CNc2cnccc2N2C[C@@H](N)[C@H](O)[C@@H](C)C2)ccc1F [Example 15, (3R,4R,5S)-3-Amino-1-(3-(((5-fluoro-6-(2-fluoro-6-methoxyphenyl)pyridin-2-yl)methyl)amino)pyridin-4-yl)-5-methylpiperidin-4-ol]
IC50 [1]: < 10 nM | IC50 [2]: 100 to 1000 nM | IC50 [3]: ≤ 10 nM

C[C@@H]1C[C@H](N)CN(c2ccncc2NCc2ccnc(-c3c(F)cccc3F)n2)C1 [Example 31, 4-[(3S,5R)-3-Amino-5-methylpiperidin-1-yl]-N-{[2-(2,6-difluorophenyl)pyrimidin-4-yl]methyl}pyridin-3-amine]
IC50 [1]: < 10 nM | IC50 [2]: 1000 to 10000 nM | IC50 [3]: 10 to 50 nM

C[C@@H]1C[C@H](N)CN(c2ccncc2NCc2ccc(F)c(-c3c(F)cc(CN4CCC4)cc3F)n2)C1 [Example 50, 4-((3S,5R)-3-Amino-5-methylpiperidin-1-yl)-N-((6-(4-(azetidin-1-ylmethyl)-2,6-difluorophenyl)-5-fluoropyridin-2-yl)methyl)pyridin-3-amine]
IC50 [1]: < 10 nM | IC50 [2]: 100 to 1000 nM | IC50 [3]: ≤ 10 nM

C[C@H]1CN(c2ccncc2NCc2ccnc(-c3c(F)cccc3F)n2)C[C@@H](N)[C@@H]1O [Example 30, (3R,4R,5S)-3-Amino-1-[3-({[2-(2,6-difluorophenyl)pyrimidin-4-yl]methyl}amino)pyridin-4-yl]-5-methylpiperidin-4-ol]
IC50 [1]: 10 to 50 nM | IC50 [2]: 1000 to 10000 nM | IC50 [3]: 10 to 50 nM

C[C@@H]1C[C@H](N)CN(c2c(NCc3ccc(F)c(-c4c(F)cccc4F)n3)cnc3c2CC[C@H]3O)C1 (single isomer, unassigned) [Example 87 (Diastereoisomer 2)]
IC50 [1]: < 10 nM | IC50 [2]: 100 to 1000 nM | IC50 [3]: 10 to 50 nM

C[C@@H]1C[C@H](N)CN(c2ccncc2NCc2ccc(F)c(-c3c(F)cccc3C#N)n2)C1 [Example 22, 2-(6-((4-((3S,5R)-3-Amino-5-methylpiperidin-1-yl)pyridin-3-ylamino)methyl)-3-fluoropyridin-2-yl)-3-fluorobenzonitrile]
IC50 [1]: < 10 nM | IC50 [2]: 100 to 1000 nM | IC50 [3]: ≤ 10 nM
